In patent US20250154138A1, “Small Molecule IL-17A Modulators” (BeiGene, Ltd., priority 2022, published 2025):

How the values were obtained:
[1] = target: human IL-17A / human IL-17RA (Homo sapiens (Human), UniProt Q16552); test: Human IL-17A biochemical assay (HTRF, blocking of IL-17A binding to IL-17RA); settings: 0.4 nM IL-17A, 0.3 nM IL-17RA, max compound concentration 10 uM
Summary of the method: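 Steps: compound dilutions (max 10 uM, 10 points) pre-incubate with 0.4 nM IL-17A for 3 h at RT; 0.3 nM IL-17RA added for 1 h; HTRF antibody pair added for 1 h; fluorescence ratio read and percent inhibition fitted to a four-parameter logistic for IC50.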

[2] = tested on: IL-17-induced GROα secretion from HT-29 cells; test: GROα release assay in human colorectal adenocarcinoma epithelial cell (HT-29, ELISA); assay type: cell-based; settings: Homo sapiens, HT-29, 48 h, 10 ng/mL IL-17A, highest concentration 10 μM, read-out: Cellular assay HT29 cell/CXCL1 IC50
Summary of the method: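 IC50 values come from four-parameter fits of GROα levels, quantified by ELISA (450 nm, standard curve) in supernatants. Compounds, 4-fold serially diluted from 10 μM, were mixed 15 min with IL-17A (10 ng/mL final) before 48 h incubation with HT-29 cells at 37°C.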

Chain of human IL-17A / human IL-17RA (Q16552 24-155): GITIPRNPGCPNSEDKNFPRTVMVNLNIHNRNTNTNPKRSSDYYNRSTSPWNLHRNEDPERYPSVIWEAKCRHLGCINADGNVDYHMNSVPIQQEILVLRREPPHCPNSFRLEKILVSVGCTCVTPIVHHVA

Structure (SMILES)	IC50 [1] [nM]	IC50 [2] [nM]
Cn1nccc1C(=O)N[C@H](C(=O)Nc1ccc2c(c1)CC(C(O)C(F)(F)F)(N1CC3(CC3)CNC1=O)C2)C1CCCCC1 (stereo partly drawn) [Example 194, N-((1S)-1-cyclohexyl-2-oxo-2-((2-(6-oxo-5,7-diazaspiro[2.5]octan-5-yl)-2-(2,2,2-trifluoro-1-hydroxyethyl)-2,3-dihydro-1H-inden-5-yl)amino)ethyl)-1-methyl-1H-pyrazole-5-carboxamide]	33.8	21
CC(C)n1nccc1C(=O)N[C@H](C(=O)Nc1ccc2c(c1)CC(N1C[C@@H](C(F)(F)F)NC1=O)C2)C1CCCCC1 (stereo partly drawn) [Example 195, N-((1S)-1-cyclohexyl-2-oxo-2-((2-((S)-2-oxo-4-(trifluoromethyl)imidazolidin-1-yl)-2,3-dihydro-1H-inden-5-yl)amino)ethyl)-1-isopropyl-1H-pyrazole-5-carboxamide]	128	383
CNC(=O)C1(N2C[C@@H](C(C)C)NC2=O)Cc2ccc(NC(=O)C(NC(=O)c3ccnn3C)C3CCc4ccc(Cl)cc4C3)cc2C1 (stereo partly drawn) [Example 196, N-(1-(7-chloro-1,2,3,4-tetrahydronaphthalen-2-yl)-2-((2-((R)-4-isopropyl-2-oxoimidazolidin-1-yl)-2-(methylcarbamoyl)-2,3-dihydro-1H-inden-5-yl)amino)-2-oxoethyl)-1-methyl-1H-pyrazole-5-carboxamide]	19.8	58.5
Cn1nccc1C(=O)N[C@H](C(=O)Nc1ccc2c(c1)CC(N1C[C@@H](C(F)(F)F)NC1=O)C2)C(C1CC1)C1CC1 (stereo partly drawn) [Example 197, N-((2S)-1,1-dicyclopropyl-3-oxo-3-((2-((S)-2-oxo-4-(trifluoromethyl)imidazolidin-1-yl)-2,3-dihydro-1H-inden-5-yl)amino)propan-2-yl)-1-methyl-1H-pyrazole-5-carboxamide]	80.6	397
CC(C)n1nccc1C(=O)N[C@H](C(=O)Nc1ccc2c(c1)CC(c1nc3cccc(C(F)(F)F)c3[nH]1)(N1CC3(CC3)CNC1=O)C2)C(C1CC1)C1CC1 (stereo partly drawn) [Example 198, N-((2S)-1,1-dicyclopropyl-3-oxo-3-((2-(6-oxo-5,7-diazaspiro[2.5]octan-5-yl)-2-(7-(trifluoromethyl)-1H-benzo[d]imidazol-2-yl)-2,3-dihydro-1H-inden-5-yl)amino)propan-2-yl)-1-isopropyl-1H-pyrazole-5-carboxamide]	1130	316
Cn1nccc1C(=O)N[C@H](C(=O)Nc1ccc2c(c1)CC(N1CC3(CC3)CNC1=O)C2)C1CCCCC1 (stereo partly drawn) [Example 199, N-((1S)-1-cyclohexyl-2-oxo-2-((2-(6-oxo-5,7-diazaspiro[2.5]octan-5-yl)-2,3-dihydro-1H-inden-5-yl)amino)ethyl)-1-methyl-1H-pyrazole-5-carboxamide]	570	2770
Cn1nccc1C(=O)N[C@H](C(=O)Nc1ccc2c(c1)CC(C(=O)Nc1cccc(F)c1)(N1CC3(CC3)CNC1=O)C2)C1CCCCC1 (stereo partly drawn) [Example 200, N-((1S)-1-cyclohexyl-2-((2-((3-fluorophenyl)carbamoyl)-2-(6-oxo-5,7-diazaspiro[2.5]octan-5-yl)-2,3-dihydro-1H-inden-5-yl)amino)-2-oxoethyl)-1-methyl-1H-pyrazole-5-carboxamide]	31.2	107
CNC(=O)C1(N2C[C@@H](C(C)C)NC2=O)Cc2ccc(NC(=O)C(NC(=O)c3ccnn3C)C3CCc4c(Cl)cccc4C3)cc2C1 (stereo partly drawn) [Example 201, N-(1-(5-chloro-1,2,3,4-tetrahydronaphthalen-2-yl)-2-((2-((R)-4-isopropyl-2-oxoimidazolidin-1-yl)-2-(methylcarbamoyl)-2,3-dihydro-1H-inden-5-yl)amino)-2-oxoethyl)-1-methyl-1H-pyrazole-5-carboxamide]	6.5	39.5
CNC(=O)C1(N2CC(C(F)(F)F)NC2=O)Cc2ccc(NC(=O)[C@@H](NC(=O)c3ccnn3C)C3CCCCC3)cc2C1 (stereo partly drawn) [Example 202, N-((1S)-1-cyclohexyl-2-((2-(methylcarbamoyl)-2-(2-oxo-4-(trifluoromethyl)imidazolidin-1-yl)-2,3-dihydro-1H-inden-5-yl)amino)-2-oxoethyl)-1-methyl-1H-pyrazole-5-carboxamide]	346	519
Cc1nonc1C(=O)N[C@H](C(=O)Nc1ccc2c(c1)CC(C(=O)Nc1cccc(F)c1)(N1CC3(CC3)CNC1=O)C2)C1CCC(F)(F)CC1 (stereo partly drawn) [Example 203, N-((1S)-1-(4,4-difluorocyclohexyl)-2-((2-((3-fluorophenyl)carbamoyl)-2-(6-oxo-5,7-diazaspiro[2.5]octan-5-yl)-2,3-dihydro-1H-inden-5-yl)amino)-2-oxoethyl)-4-methyl-1,2,5-oxadiazole-3-carboxamide]	63.9	135
CNC(=O)C1(N2C[C@@H](C(C)C)NC2=O)Cc2ccc(NC(=O)[C@H](Cc3ccc(Cl)cc3)NC(=O)c3ccnn3C)cc2C1 (stereo partly drawn) [Example 204, N-((2S)-3-(4-chlorophenyl)-1-((2-((R)-4-isopropyl-2-oxoimidazolidin-1-yl)-2-(methylcarbamoyl)-2,3-dihydro-1H-inden-5-yl)amino)-1-oxopropan-2-yl)-1-methyl-1H-pyrazole-5-carboxamide]	406	2240
Cc1nonc1C(=O)N[C@H](C(=O)Nc1ccc2c(c1)CC(c1nc(-c3ccccc3)c[nH]1)(N1CC3(CC3)CNC1=O)C2)C1CCC(F)(F)CC1 (stereo partly drawn) [Example 205, N-((1S)-1-(4,4-difluorocyclohexyl)-2-oxo-2-((2-(6-oxo-5,7-diazaspiro[2.5]octan-5-yl)-2-(4-phenyl-1H-imidazol-2-yl)-2,3-dihydro-1H-inden-5-yl)amino)ethyl)-4-methyl-1,2,5-oxadiazole-3-carboxamide]	246	193
CC(C)n1nccc1C(=O)N[C@H](C(=O)Nc1ccc2c(c1)CC(c1ncc(-c3ccccc3)[nH]1)(N1CC3(CC3)CNC1=O)C2)C(C1CC1)C1CC1 (stereo partly drawn) [Example 206, N-((2S)-1,1-dicyclopropyl-3-oxo-3-((2-(6-oxo-5,7-diazaspiro[2.5]octan-5-yl)-2-(5-phenyl-1H-imidazol-2-yl)-2,3-dihydro-1H-inden-5-yl)amino)propan-2-yl)-1-isopropyl-1H-pyrazole-5-carboxamide]	270	32.5
CCC(CC)OC(=O)C1(N2CC3(CC3)CNC2=O)Cc2ccc(NC(=O)[C@@H](NC(=O)c3nonc3C)C3CCC(F)(F)CC3)cc2C1 (stereo partly drawn) [Example 207, pentan-3-yl 5-((S)-2-(4,4-difluorocyclohexyl)-2-(4-methyl-1,2,5-oxadiazole-3-carboxamido)acetamido)-2-(6-oxo-5,7-diazaspiro[2.5]octan-5-yl)-2,3-dihydro-1H-indene-2-carboxylate]	347	861
Cc1nonc1C(=O)NC(C(=O)Nc1ccc2c(c1)CC(N1C[C@@H](C(F)(F)F)NC1=O)C2)C1CCc2cc(Cl)ccc2C1 (stereo partly drawn) [Example 208, N-(1-(6-chloro-1,2,3,4-tetrahydronaphthalen-2-yl)-2-oxo-2-((2-((S)-2-oxo-4-(trifluoromethyl)imidazolidin-1-yl)-2,3-dihydro-1H-inden-5-yl)amino)ethyl)-4-methyl-1,2,5-oxadiazole-3-carboxamide]	718	2170
